Data as given in ChEMBL document CHEMBL1154532, “Antibacterial alkoxybenzamide inhibitors of the essential bacterial cell division protein FtsZ” (2009).
Converted amounts (≈) assume the structure as drawn.

Tests used:
Bacillus subtilis = experiment: Antibacterial activity against Bacillus subtilis 168; format: functional
Staphylococcus aureus [1] = experiment: Antibacterial activity against Staphylococcus aureus ATCC 29213; format: functional
[2] = molecular target: T1, Cell division protein FtsZ (Bacillus subtilis (strain 168)) (UniProt P17865); experiment: Inhibition of FtsZ-mediated cell division in Bacillus subtilis 168 assessed as drug concentration required to produce filamentation
T1 sequence (whole entry): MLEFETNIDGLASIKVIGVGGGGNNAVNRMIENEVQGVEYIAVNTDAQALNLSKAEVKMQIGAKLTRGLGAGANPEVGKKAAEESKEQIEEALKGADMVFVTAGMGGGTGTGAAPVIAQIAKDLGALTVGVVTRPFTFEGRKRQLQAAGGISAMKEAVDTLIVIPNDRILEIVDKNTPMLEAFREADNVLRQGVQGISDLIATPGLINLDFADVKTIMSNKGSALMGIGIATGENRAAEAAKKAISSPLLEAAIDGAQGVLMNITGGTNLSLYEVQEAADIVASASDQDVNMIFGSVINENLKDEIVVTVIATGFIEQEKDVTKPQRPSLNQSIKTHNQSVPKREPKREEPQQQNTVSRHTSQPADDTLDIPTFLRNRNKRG

[3] = molecular target: T2, Cell division protein FtsZ (Staphylococcus aureus) (UniProt P0A031); experiment: Inhibition of FtsZ-mediated cell division in Staphylococcus aureus ATCC 29213 assessed as drug concentration required to produce ballooning
T2 sequence (whole entry): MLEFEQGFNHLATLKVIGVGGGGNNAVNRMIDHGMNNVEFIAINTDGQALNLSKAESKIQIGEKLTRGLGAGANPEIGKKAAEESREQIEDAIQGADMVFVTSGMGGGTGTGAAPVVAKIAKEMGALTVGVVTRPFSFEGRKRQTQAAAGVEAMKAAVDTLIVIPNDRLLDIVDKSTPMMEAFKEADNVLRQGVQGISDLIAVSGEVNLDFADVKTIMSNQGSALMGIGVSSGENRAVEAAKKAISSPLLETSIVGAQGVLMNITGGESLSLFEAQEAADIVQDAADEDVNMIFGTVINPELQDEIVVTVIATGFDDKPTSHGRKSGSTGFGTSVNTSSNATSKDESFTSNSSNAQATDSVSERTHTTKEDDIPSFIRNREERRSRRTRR

Staphylococcus aureus [4] = experiment: Antibacterial activity against methicillin-susceptible Staphylococcus aureus ATCC 25923; format: functional
Staphylococcus aureus [5] = experiment: Antibacterial activity against methicillin-resistant Staphylococcus aureus ATCC 700698; format: functional
Staphylococcus aureus [6] = experiment: Antibacterial activity against Staphylococcus aureus ATCC 601055 with FtsZ P300R point mutation; format: functional
Staphylococcus aureus [7] = experiment: Antibacterial activity against methicillin-resistant Staphylococcus aureus ATCC 43300; format: functional
Staphylococcus aureus [8] = experiment: Antibacterial activity against Staphylococcus aureus ATCC 601055 with FtsZ […] point mutation; format: functional
Staphylococcus aureus [9] = experiment: Antibacterial activity against methicillin-resistant Staphylococcus aureus ATCC 607004; format: functional
Staphylococcus aureus [10] = experiment: Antibacterial activity against […] Staphylococcus aureus ATCC 29213; format: functional
[11] = tested on: Staphylococcus epidermidis; experiment: Antibacterial activity against Staphylococcus epidermidis ATCC 12228; format: functional
Staphylococcus aureus [12] = experiment: Antibacterial activity against methicillin-susceptible Staphylococcus aureus ATCC 19636; format: functional
Staphylococcus aureus [13] = experiment: Antibacterial activity against methicillin-susceptible Staphylococcus aureus ATCC 601055; format: functional

| SMILES | MIC (Bacillus subtilis) [µg/mL] | MIC (Staphylococcus aureus [1]) [µg/mL] | Activity [2] [µg/mL] | also measured |
| --- | --- | --- | --- | --- |
| CCOc1cccc(C(N)=O)c1 | 2000 (≈ 12100 µM) | 1020 (≈ 6200 µM) | 500 | – |
| CC(=O)O[C@H]1C[C@@]2(C)[C@@H](C[C@@H](O)[C@H]3[C@@]4(C)CC[C@@H](O)[C@@H](C)[C@@H]4CC[C@@]32C)/C1=C(\CCC=C(C)C)C(=O)O [FUSIDIC ACID] | – | 0.06 (≈ 0.116 µM) | – | – |
| CCCCCCCCCOc1cccc(C(N)=O)c1F | 0.125 (≈ 0.444 µM) | 0.5 (≈ 1.78 µM) | 0.125 | Activity [3]: 0.5 µg/mL |
| COc1cccc(C(N)=O)c1[N+](=O)[O-] | > 4000 | – | – | – |
| Cc1cccc(C(N)=O)c1 | > 2000 | – | – | – |
| CCCCCCCCCOc1ccc(F)c(C(N)=O)c1Cl | 0.5 (≈ 1.58 µM) | 2 (≈ 6.33 µM) | 0.5 | Activity [3]: 1 µg/mL |
| COc1cc(C(N)=O)ccc1[N+](=O)[O-] | > 4000 | – | – | – |
| COc1cccc(C(N)=O)c1C | > 4000 | – | – | – |
| COc1cccc(C(N)=O)c1OC | > 4000 | – | – | – |
| CCCCCCCCOc1cccc(C(N)=O)c1 | 1 (≈ 4.01 µM) | 4 (≈ 16 µM) | 0.37 | – |
| COc1ccc(OC)c(C(N)=O)c1 | > 4000 | – | – | – |
| COc1cccc(C(=O)NO)c1 | 4000 (≈ 23900 µM) | – | – | – |
| CCCCOc1cccc(C(N)=O)c1 | 128 (≈ 662 µM) | 128 (≈ 662 µM) | 24 | – |
| COc1ccc(Cl)c(C(N)=O)c1F | 1020 (≈ 5030 µM) | – | 256 | – |
| CCCCCCCCCOc1ccc(F)c(C(N)=O)c1 | 1 (≈ 3.55 µM) | 8 (≈ 28.4 µM) | 1 | Activity [3]: 2 µg/mL |
| COc1ccc(F)c(C(N)=O)c1F | 512 (≈ 2740 µM) | 512 (≈ 2740 µM) | 256 | – |
| CNC(=O)c1cccc(OC)c1 | > 4000 | – | – | – |
| COc1cccc(CN)c1 | 250 (≈ 1820 µM) | – | – | – |
| CCCCCCCCCCOc1cccc(C(N)=O)c1 | 1 (≈ 3.6 µM) | 64 (≈ 231 µM) | 0.5 | – |
| CCCCCCCCCCCOc1cccc(C(N)=O)c1 | 4 (≈ 13.7 µM) | > 256 | 1 | – |
| COc1ccc(F)c(C(N)=O)c1 | 800 (≈ 4730 µM) | – | – | – |
| COc1cccc(C(N)=O)c1F | 512 (≈ 3030 µM) | 512 (≈ 3030 µM) | 128 | – |
| CCCCCCCCCOc1ccc(Cl)c(C(N)=O)c1F | 0.5 (≈ 1.58 µM) | 1 (≈ 3.17 µM) | 0.25 | Activity [3]: 0.5 µg/mL |
| NC(=O)c1cccc(O)c1 | > 4000 | – | 3000 | – |

| SMILES | MIC (Bacillus subtilis) [µg/mL] | MIC (Staphylococcus aureus [1]) [µg/mL] | Activity [2] [µg/mL] | also measured |
| --- | --- | --- | --- | --- |
| CCCCCCCCCOc1ccc(F)c(C(N)=O)c1F | 0.125 (≈ 0.418 µM) | 0.5 (≈ 1.67 µM) | 0.125 | Activity [3]: 0.25 µg/mL |
| CNc1cccc(C(N)=O)c1 | > 4000 | – | – | – |
| COc1ccc(C(N)=O)cc1OC | > 4000 | – | – | – |
| COc1cc(C(N)=O)ccc1F | > 4000 | – | – | – |
| O=C(O)c1cn(C2CC2)c2cc(N3CCNCC3)c(F)cc2c1=O [CIPROFLOXACIN] | – | 0.5 (≈ 1.51 µM) | – | – |
| COc1cc(OC)cc(C(N)=O)c1 | > 4000 | – | – | – |
| COc1ccc([N+](=O)[O-])c(C(N)=O)c1 | > 4000 | – | – | – |
| CCCCCCCOc1cccc(C(N)=O)c1 | 4 (≈ 17 µM) | 8 (≈ 34 µM) | 1.5 | – |
| COc1ccc(C(N)=O)cc1 | > 4000 | – | – | – |
| COc1cccc(C(N)=S)c1 | 2000 (≈ 12000 µM) | – | – | – |
| COc1cccc(C(=O)O)c1 | > 4000 | – | – | – |
| COc1cccc(C(N)=O)c1 | 4000 (≈ 26500 µM) | 2050 (≈ 13500 µM) | 500 | MIC (Staphylococcus aureus [4]): 4100 µg/mL (≈ 27100 µM); MIC (Staphylococcus aureus [5]): 4100 µg/mL (≈ 27100 µM); MIC (Staphylococcus aureus [6]): > 8000 µg/mL; MIC (Staphylococcus aureus [7]): 4100 µg/mL (≈ 27100 µM); MIC (Staphylococcus aureus [8]): > 8000 µg/mL; MIC (Staphylococcus aureus [9]): 4100 µg/mL (≈ 27100 µM); MIC (Staphylococcus aureus [10]): 2050 µg/mL (≈ 13500 µM); MIC [11]: 4100 µg/mL (≈ 27100 µM); MIC (Staphylococcus aureus [12]): 2050 µg/mL (≈ 13500 µM); MIC (Staphylococcus aureus [13]): 4000 µg/mL (≈ 26500 µM) |
| COc1cccc(CC(N)=O)c1 | > 4000 | – | – | – |
| C/C(=C\C(=O)OCCCCCCCCC(=O)O)C[C@@H]1OC[C@H](C[C@@H]2O[C@H]2[C@@H](C)[C@H](C)O)[C@@H](O)[C@H]1O [MUPIROCIN] | – | 0.12 (≈ 0.24 µM) | – | – |
| CCCCCOc1cccc(C(N)=O)c1 | 32 (≈ 154 µM) | 32 (≈ 154 µM) | 24 | – |
| CSc1cccc(C(N)=O)c1 | > 4000 | – | – | – |
| CCCCCCCCCOc1cccc(C(N)=O)c1 | 0.5 (≈ 1.9 µM) | 2 (≈ 7.59 µM) | 0.18 | MIC (Staphylococcus aureus [6]): > 128 µg/mL; MIC (Staphylococcus aureus [8]): > 128 µg/mL; MIC (Staphylococcus aureus [13]): 2 µg/mL (≈ 7.59 µM) |
| COc1ccc(F)c(C(N)=O)c1Cl | > 4000 | – | 2050 | – |
| CCCCCCCCCCCCOc1cccc(C(N)=O)c1 | – | > 256 | > 128 | – |
| NC(=O)c1cccc(OC(F)(F)F)c1 | > 4000 | – | – | – |
| O=C(N[C@H](CO)[C@H](O)c1ccc([N+](=O)[O-])cc1)C(Cl)Cl [CHLORAMPHENICOL] | – | 4 (≈ 12.4 µM) | – | – |
| CCCCCCOc1cccc(C(N)=O)c1 | 16 (≈ 72.3 µM) | 16 (≈ 72.3 µM) | 8 | MIC (Staphylococcus aureus [4]): 16 µg/mL (≈ 72.3 µM); MIC (Staphylococcus aureus [5]): 32 µg/mL (≈ 145 µM); MIC (Staphylococcus aureus [6]): > 128 µg/mL; MIC (Staphylococcus aureus [7]): 16 µg/mL (≈ 72.3 µM); MIC (Staphylococcus aureus [8]): > 128 µg/mL; MIC (Staphylococcus aureus [9]): 32 µg/mL (≈ 145 µM); MIC (Staphylococcus aureus [10]): 16 µg/mL (≈ 72.3 µM); MIC [11]: 32 µg/mL (≈ 145 µM); MIC (Staphylococcus aureus [12]): 16 µg/mL (≈ 72.3 µM); MIC (Staphylococcus aureus [13]): 32 µg/mL (≈ 145 µM) |
| CCCOc1cccc(C(N)=O)c1 | 500 (≈ 2790 µM) | 256 (≈ 1430 µM) | 375 | – |
